Results from patent publication US5571685A (priority 1992, dated 1996).
Like-named read-outs stand apart in the source and are kept apart here.

How the values were obtained:
morphinone reductase [1] = molecular target: T1, morphinone reductase (Pseudomonas putida, UniProt Q51990); experiment: biochemical; parameters: initiator Met absent; species or system Pseudomonas putida M10; conditions: for Inhibition of enzyme (in words): pre-incubation with purified enzyme; for remaining activity at 1000 µM: 1 mM; for remaining activity at 1000 µM / remaining activity at 500 µM: read-out: Activity as percentage of control activity
Description: Assays were carried out at 30° C.
Purified enzyme was incubated with the following possible inhibitors: copper sulphate, the thiol-blocking agent p-hydroxymercuribenzoate (pHMB), the thiol-reducing agent dithiothreitol (DTT) and the metal-complexing agents ethylenediaminetetraacetic acid (EDTA) and 8- hydroxyquinoline (8HQ). Incubation was in the standard assay mixture without codeinone or NADH, firstly for 30 min at room temperature and secondly for 16 hours at 4° C. The enzyme concentration was approximately 3.3 μg/ml, 1/100 that of the purified enzyme stock.

morphinone reductase [2] = molecular target: T1, morphinone reductase; conditions: for Enzyme activity against compound as substrate: forward (reduction) direction, with NADH; for Enzyme activity in the reverse direction: reverse reaction
morphinone reductase [3] = molecular target: T1, morphinone reductase; experiment: Inhibition of the reaction with codeinone by compounds added to the standard assay mixture; assay type: biochemical, Pseudomonas putida M10; parameters: initiator Met absent; conditions: for Inhibition of the reaction with codeinone: added at 0.3 mM to the standard assay mixture
Description: Enzyme activity was tested with a variety of substrates.

morphinone reductase [4] = molecular target: T1, morphinone reductase; experiment: Coupled enzyme system (morphine dehydrogenase then morphinone reductase), HPLC analysis; assay type: biochemical, Pseudomonas putida M10; parameters: initiator Met absent
Description: Reverse-phase HPLC analysis was performed on a Waters component system (Millipore Waters U.K. Limited, Watford) consisting of a model 510 pump, a model 712 WISP autoinjector and a Waters 994 programmable photodiode array detector set to 235 nm and 280 nm, 0-1 V fsd. Separation of samples (50 μl ) was achieved on a 5 μm C18 Spherisorb ODS column (4.6×250mm) (Anachem limited, Luton) with an isocratic solvent system, delivered at a flow rate of 1 ml/min. The mobile phase consisted of filter-sterilised 15 mM KH2 PO4 (adjusted to pH 3.5 with 1 M H3 PO4) in 30% (v/v) HPLC grade acetonitrile (degassed for 40 min prior to use). Integrations were performed using Maxima 820 software and UV absorbance scans of resultant peaks were measured between 190 and 350 nm using the programmable photodiode array detector.
At regular intervals, 1 ml samples were removed and the reaction stopped by the addition of 2 μl glacial acetic acid (HPLC grade). The precipitated protein was subsequently pelleted at 13,000 rpm in an MSE microfuge.

[5] = molecular target: T2, deflavo-morphinone reductase (Pseudomonas putida, UniProt Q51990); experiment: Reconstitution of deflavo-morphinone reductase by incubation with flavins; assay type: biochemical, Pseudomonas putida M10
T2 construct: FMN removed by ammonium sulphate (apoenzyme); initiator Met absent
Description: Flavin was dissociated from morphinone reductase by boiling for 3 minutes and removal of denatured protein by ultrafiltration. […] Thin layer chromatography (TLC) of flavins was performed on silica plates using solvent systems 2 and 4 of Fazekas and Kokai (Met. Enzymol. (1971) 18B:385-398), viz. 12:3:5 n-butanol:acetic acid:water and 2% disodium hydrogen phosphate in water. Flayins on TLC plates were visualised by their yellow fluorescence when illuminated by ultraviolet light at 366 nm. Luciferase assay of flavins was performed using the commercially-availablepreparation of Vibrio harveyii luciferase of Sigma. The reaction mixture contained 0.1 mg/ml luciferase preparation, 0.1 mg/ml bovine serum albumin, 0.2 mM n-decanal, 0.5 mM NADH and 1.5mM dithiothreitol. Assays were carried out at 24° C. and light emission was measured using a BioOrbit 1250 Luminometer (Labsystems (UK) Ltd., Basingstoke, U.K.). Deflavomorphinone reductase was prepared by ammonium sulphate treatment, as described by Husain and Massey (1978) Met. Enzymol. 53:429-437.
The liberated flavin comigrated with flavin mononucleotide (FMN) and not with flavin adenine dinucleotide (FAD) or riboflavin in two thin layer chromatography systems. The liberated flavin gave a positive result in the luciferase assay which is highly specific for FMN (Chappelle and Picciolo, Met. Enzymol (1971) 18B:381-385). […]

[6] = test system: COc1ccc2c3c1O[C@H]1C(=O)C=C[C@H]4[C@@H](C2)N(C)CC[C@]314; experiment: purified protein, by the assay type; conditions: 30.0 °C
[7] = test system: COc1ccc2c3c1O[C@H]1C(=O)CC=C4[C@@H](C2)N(C)CC[C@]431; experiment: purified protein, by the assay type; conditions: 30.0 °C
[8] = test system: NC(=O)C1=CN([C@@H]2O[C@H](COP(=O)(O)OP(=O)(O)OC[C@H]3O[C@@H](n4cnc5c(N)ncnc54)[C@H](O)[C@@H]3O)[C@@H](O)[C@H]2O)C=CC1; experiment: purified protein, by the assay type; conditions: 30.0 °C

O=S(=O)([O-])[O-].[Cu+2] [CuSO4, copper sulphate]
Activity as percentage of control activity (morphinone reductase [1]; 0.01 Mm, 30 min 20°C.): 0%
Inhibition of enzyme (in words) (morphinone reductase [1]): highly inhibitory

O=C1C=CCCC1 [2-cyclohexen-1-one]
Enzyme activity against compound as substrate (morphinone reductase [2]): Very slight activity
Inhibition of activity against codeinone (morphinone reductase [3]; added to the standard assay at 1 mM): inhibited the reaction with codeinone

C[C@]12CCC(=O)C=C1CC[C@@H]1[C@@H]2C(=O)C[C@@]2(C)[C@H]1CC[C@]2(O)C(=O)CO [cortisone]
Enzyme activity against compound as substrate (morphinone reductase [2]): No activity
Inhibition of the reaction with codeinone (morphinone reductase [3]): inhibit greatly

CN1CC[C@]23c4c5ccc(O)c4O[C@H]2C(=O)C=C[C@H]3[C@H]1C5 [morphinone]
Enzyme activity against compound as substrate (morphinone reductase [4]): Activity against morphinone was demonstrated

COc1ccc2c3c1O[C@H]1C(=O)CC[C@H]4[C@@H](C2)N(C)CC[C@]314 [hydrocodone]
Enzyme activity in the reverse direction (morphinone reductase [2]): No activity in the reverse direction

Cc1cc2nc3c(=O)[nH]c(=O)nc-3n(C[C@H](O)[C@H](O)[C@H](O)COP(=O)(O)OP(=O)(O)OC[C@H]3O[C@@H](n4cnc5c(N)ncnc54)[C@H](O)[C@@H]3O)c2cc1C [FAD, flavin adenine dinucleotide]
Restoration of enzyme activity after incubation with flavin (in words) [5]: did not cause restoration

COc1ccc2c3c1O[C@H]1C(=O)CC=C4[C@@H](C2)N(C)CC[C@]431 [Neopinone, neopinone]
Enzyme activity against compound as substrate (morphinone reductase [2]): Activity was detected

NC(=O)C1=CN([C@@H]2O[C@H](COP(=O)(O)OP(=O)(O)OC[C@H]3O[C@@H](n4cnc5c(N)ncnc54)[C@H](OP(=O)(O)O)[C@@H]3O)[C@@H](O)[C@H]2O)C=CC1 [NADPH]
Enzyme activity with alternative cofactor (morphinone reductase [2]; NADPH replaced NADH): No activity

CN1CC[C@]23c4c5ccc(O)c4O[C@H]2C(=O)CC[C@@]3(O)[C@H]1C5 [oxymorphone]
Enzyme activity in the reverse direction (morphinone reductase [2]): No reverse reaction

COc1ccc2c3c1O[C@H]1C(=O)C=C[C@H]4[C@@H](C2)N(C)CC[C@]314 [Codeinone, codeinone]
Enzyme activity against compound as substrate (morphinone reductase [2]): Activity was detected

COc1ccc2c3c1O[C@H]1C(=O)CC[C@@]4(O)[C@@H](C2)N(C)CC[C@]314 [oxycodone]
Enzyme activity in the reverse direction (morphinone reductase [2]): No reverse reaction

O[C@H](CS)[C@H](O)CS (racemic) [DTT, dithiothreitol]
remaining activity at 1000 µM (morphinone reductase [1]; 16 h 4°C.): 94%
remaining activity at 1000 µM (morphinone reductase [1]; 0.5 h, 30 min 20°C.): 94%

COc1ccc2c3c1O[C@H]1[C@H](O)C=C[C@H]4[C@@H](C2)N(C)CC[C@@]341 [isocodeine]
Enzyme activity against compound as substrate (morphinone reductase [2]): No activity

O=C(O)CN(CCN(CC(=O)O)CC(=O)O)CC(=O)O [EDTA, ethylenediaminetetraacetic acid]
remaining activity at 500 µM (morphinone reductase [1]; 0.5 h): 100%
remaining activity at 500 µM (morphinone reductase [1]; 16 h): 97%

COc1ccc2c3c1O[C@H]1[C@@H](O)C=C[C@H]4[C@@H](C2)N(C)CC[C@@]341 [codeine]
Enzyme activity against compound as substrate (morphinone reductase [2]): No activity

COc1ccc2c3c1O[C@H]1[C@@H](O)CC[C@H]4[C@@H](C2)N(C)CC[C@@]341 [dihydrocodeine]
Enzyme activity in the reverse direction (morphinone reductase [2]): No reverse reaction

O=C(O)c1cc[c]([Hg+])cc1.[OH-] [pHMB, p-hydroxymercuribenzoate]
Activity as percentage of control activity (morphinone reductase [1]; 0.01 mM, 30 min 20°C.): 37%
Activity as percentage of control activity (morphinone reductase [1]; 0.01 mM, 16 h 4°C.): 19%
Activity as percentage of control activity (morphinone reductase [1]; 0.02 mM, 30 min 20°C.): 0%
Inhibition of enzyme (in words) (morphinone reductase [1]): highly inhibitory

morphinone reductase (Pseudomonas putida)
Km [6]: 250 µM
Vmax [6]: 32.0 U/mg
kcat [6]: 44.4 s⁻¹
kcat/Km [6]: 178000 M⁻¹ s⁻¹
Km [7]: 430 µM
Vmax [7]: 16.6 U/mg
kcat [7]: 23.0 s⁻¹
kcat/Km [7]: 53500 M⁻¹ s⁻¹
Km [8]: 50 µM

CC(=O)[C@H]1CC[C@H]2[C@@H]3CCC4=CC(=O)CC[C@]4(C)[C@H]3CC[C@]12C [progesterone]
Enzyme activity against compound as substrate (morphinone reductase [2]): No activity
Inhibition of the reaction with codeinone (morphinone reductase [3]): inhibit greatly

Oc1cccc2cccnc12 [8HQ, 8-hydroxyquinoline]
Activity as percentage of control activity (morphinone reductase [1]; morphinone reductase, 30 min, 50 µM): 94
Activity as percentage of control activity (morphinone reductase [1]; morphinone reductase, 960 min, 50 µM): 91
